Calls of active or inactive are those of the source.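 Rule for the calls: active = compounds giving half or more protection of infected cells from virus-caused growth loss, again on retest; inactive = the rest.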
System: CEM cells HIV-1 protection, formazan growth assay
Assay: NCI AIDS Antiviral Assay
Conditions: for IC50: measured here: growth of uninfected CEM cells
How it was run: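 Five concentrations of each compound were applied to infected and uninfected human CEM cells. Protection from HIV-1 was judged from growth measured with a soluble formazan assay.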

Compound | EC50 [µM] | IC50 [µM] | outcome
O=C(Nc1ccc(C2=NCCN2)cc1)c1ccc(C(=O)Nc2ccc(C3=NCCN3)cc2)c(F)c1 | 120 | > 200 | –
CCCCCCCCC[C@@H]1C[C@H](O)[C@H](Cc2ccccc2)N1C(=O)OC(C)(C)C | > 200 | 35.5 | –
COC1/C=C\OC2(C)Oc3c(C)c(O)c4c(c3C2=O)C(=O)C=C(NC(=O)/C(C)=C\C=C/C(C)C(O)C(C)C(O)C(C)C(OC(C)=O)C1C)C4=O (stereo not drawn) | > 200 | 2.69 | –
O=c1[nH]c2cccnc2c(=O)n1O | > 200 | 69.2 | –
CC(C)=C1C(=O)NC(=O)C1C(N)=O (stereo not drawn) | > 200 | > 200 | –
CCOCCCCS(=O)(=O)O | > 200 | > 200 | –
Clc1ccc(NC2=NCCCS2)c2ccccc12 | > 200 | 42.7 | –
COc1ccccc1NC(=S)N=Nc1c(O)[nH]c2ccccc12 | > 200 | 174 | –
COC(=O)C1=C(C(=O)OC)C2=S(SC3=C2CCCC3)S1 (stereo not drawn) | – | – | inactive
COCC(OC)C(CC=C(C#N)C#N)OC (stereo not drawn) | > 44.7 | > 44.7 | –
S=c1c2ccccc2c(=S)n2n1CC=CC2 | – | – | inactive
O=C(NCCN(CCNC(=O)c1cccc(=O)n1O)CCN(CCNC(=O)c1cccc(=O)n1O)CCNC(=O)c1cccc(=O)n1O)c1cccc(=O)n1O | > 200 | > 200 | –
O=C(/C=C/c1ccc(O)c(O)c1)OC1C[C@@](O)(C(=O)O)C[C@@H](O)[C@H]1OC(=O)/C=C/c1ccc(O)c(O)c1 (stereo partly drawn) | > 347 | 155 | –
O=c1ccn(-c2ccccn2)c(=O)n1-c1ccccn1 | – | – | inactive
O=CC(NC(=O)N(CCCl)N=O)C(O)C(O)C(O)CO (stereo not drawn) | > 398 | > 398 | –
O=c1[nH]c(=O)ss1 | > 105 | > 100 | –
COc1ccc(CCCCl)c(C2=NCCc3ccccc32)c1 | > 200 | 7.08 | –
COc1ccc(-n2c(C)nc3ccc(NC(=S)Nc4ccccc4)cc3c2=O)cc1 | > 200 | > 200 | –
N/C(=N/O)C(F)(F)C(F)(F)C(F)(F)/C(N)=N\O | > 200 | > 200 | –
CCCCCC=C(c1cc(Cl)c(O)c(C(=O)NO)c1)c1cc(Cl)c(O)c(C(=O)NO)c1 | > 200 | 35.5 | –
Cc1cccc(C(C)(C)C)c1NC(=O)C(=O)Cc1nc2ccccc2s1 | – | – | inactive
Cn1c2ccccc2c2c(=O)[nH]c(=O)[nH]c21 | > 200 | > 200 | –
O=c1[nH]n(Cc2ccccn2)c2ccc([N+](=O)[O-])cc12 | > 200 | > 200 | –

Compound | EC50 [µM] | IC50 [µM] | outcome
C[n+]1cc2c3c(ccc2c2ccc4cc5c(cc4c21)OCO5)OCO3 | > 1.58 | 0.288 | –
COC(=O)[C@H]1C2c3ccccc3-c3ccccc3C2(OC(C)=O)[C@@]1(Cl)C(=O)OC (stereo partly drawn) | > 43.7 | 6.31 | –
CCc1c(Cc2ccccc2)n(COCCCO)c(=O)[nH]c1=O | 7.08 | 10 | –
O=C1NNC2NC(=O)C3(NN2C1=O)c1ccccc1-c1ccccc13 (stereo not drawn) | > 100 | > 100 | –
O=C(O)CN1CCN(CC(=O)O)CCN(CC(=O)O)CCN(CC(=O)O)CC1 | > 200 | > 200 | –
CC(=O)Nc1ccc(C(=O)NN2C(=O)C(Cl)C2c2cccc([N+](=O)[O-])c2)cc1 (stereo not drawn) | > 200 | 85.1 | –
Clc1ccccc1C1SCc2nc3ncccc3n21 (stereo not drawn) | > 91.2 | 67.6 | –
COc1ccc(C2=CSC3=NC(C)(C)CC(C)=NN23)cc1 | > 316 | 170 | –
CCOC(=O)c1cccnc1C(OC(C)=O)OC(C)=O | > 891 | 158 | –
CCCC1=NC(C(F)(F)F)(C(F)(F)F)N=C(N2CCOCC2)O1 | > 200 | > 200 | –
COc1ccc(-c2nc3c(=O)n(C)c(=O)nc-3n(C)n2)cc1OC | > 20 | 0.447 | –
COC(=O)/C=C(\C)C(=O)N(C)c1ccccc1I | > 200 | 123 | –
NC(N)=NS(=O)(=O)c1ccc(Nc2c3ccccc3nc3c(C(=O)NNCCO)cccc23)cc1 | > 200 | 5.25 | –
CC1(C)C=C(/C=N/Nc2ccc([N+](=O)[O-])cc2)C(C#N)=C(O)C1(C#N)C#N | > 200 | 53.7 | –
Cc1ccccc1NC(=O)CC(=O)N1N=C(N(CCC#N)c2ccccc2Cl)CC1c1ccccc1 (stereo not drawn) | > 263 | > 263 | –
O=C(O)c1ccc(/C=C/c2ccc(N=Nc3c(O)cc(O)cc3C(=O)O)cc2C(=O)O)cc1 | > 200 | 120 | –
C=CCn1c(-c2ccccc2)cs/c1=N\C(P(=O)(O)O)P(=O)(O)O | > 200 | > 200 | –
COc1cc(/C=C2\CCC(C)C3=C(c4cc(OC)c(OC)c(OC)c4)C(C#N)=C(N)OC32)cc(OC)c1OC (stereo not drawn) | – | – | inactive
Cc1ccc2c(ccc(/C=C/c3ccc(O)c4ncccc34)[n+]2C)c1 | > 28.8 | 5.89 | –
NCCNCc1c2ccccc2c(CNCCN)c2ccccc12 | > 95.5 | 7.94 | –
COC1(OC)CCC2(C)OC(c3ccccc3)C1O2 (stereo not drawn) | – | – | inactive
N#C/C(=C\c1ccccc1)c1cccc(F)c1 | > 200 | 46.8 | –
COC1NC(=O)Oc2c(F)cccc21 (stereo not drawn) | – | – | inactive

Compound | EC50 [µM] | IC50 [µM] | outcome
NC1=NCc2c(sc3c2CCCC3)N1 | > 200 | 18.6 | –
CCc1cccc(C)c1NC(=O)CC1C(=O)Nc2ccccc2S1(=O)=O (stereo not drawn) | > 10 | > 10 | –
CN1COc2c(nc(-c3ccccc3)[nH]c2=O)C1 | > 1020 | 61.7 | –
c1ccc(-c2sc(-c3cccs3)cc2Cc2cccs2)cc1 | > 200 | 83.2 | –
CCOC(=O)C(Cc1cc(OC)c(CC(C(=O)OCC)C(=O)OCC)cc1OC)C(=O)OCC | – | – | inactive
CC1=Nc2ccccc2N=C(c2c(O)c3ccc4ccccc4c3oc2=O)C1 | > 200 | 49 | –
N#CCCN(C1=NN(C(=O)CC(=O)Nc2ccccc2)C(c2ccccc2)C1)c1ccccc1Cl (stereo not drawn) | > 269 | > 269 | –
O=NN(CCCl)C(=O)/N=N/C(=O)N(CCCl)N=O | > 200 | 15.1 | –
O=C(/C(=C/c1ccc(F)cc1)c1ccccc1)c1ccccc1 | > 6.61 | > 6.61 | –
COC(=O)C(Cc1c(C2Nc3ccccc3C2CC(NC(=O)CNC(C)=O)C(=O)OC)[nH]c2ccccc12)NC(=O)CNC(C)=O (stereo not drawn) | > 200 | > 200 | –
COc1cc2[nH]ncc(=S)c2cc1OC | 61.7 | 219 | –
CC(C)OC(=O)[C@@H]1OC(C)(C)O[C@H]1C(=O)OC(C)C | > 200 | > 200 | –
[Cu+2].[O-]/N=C/c1ccc[oH+]1.[O-]/N=C/c1ccc[oH+]1 | > 200 | 11.7 | –
CC(NC(=O)OC(C)(C)C)C(=O)NC1CCCC1 (stereo not drawn) | > 200 | > 200 | –
C1=CC2C=CC(C=C1)P2c1ccccc1 (stereo not drawn) | – | – | inactive
CC1(C)O[C@@H](CP(c2cccc3ccccc23)c2cccc3ccccc23)[C@H](CP(c2cccc3ccccc23)c2cccc3ccccc23)O1 | > 200 | > 200 | –
O=C1/C(=C/c2ccc(Cl)cc2)Cc2ccccc21 | > 5.62 | > 5.62 | –
CCSCCCCCCCCCCC(=O)OCC1OC(n2cc(C)c(=O)[nH]c2=O)CC1N=[N+]=[N-] (stereo not drawn) | 0.0479 | 49 | –
NC1NCCC(=O)N1CCc1c[nH]c2ccccc12 (stereo not drawn) | > 200 | 36.3 | –
CCCCCCCCNC(=O)C1=C(C)NC(C)=C(C(=O)NCCCCCCCC)C1 | > 200 | 97.7 | –
O=C(OC[C@H]1C[C@H]2C(=O)OCCC[C@H]2O1)c1ccccc1 | > 200 | > 200 | –
Cc1cn(C2CC(N=[N+]=[N-])C(COC(=O)CCCCCCCCCCCCl)O2)c(=O)[nH]c1=O (stereo not drawn) | 0.288 | 20 | –
COc1cccc(/C=C2\N=C(Cl)OC2=O)c1O | > 20.4 | > 20.4 | –

Compound | EC50 [µM] | IC50 [µM] | outcome
Cc1ccc(C)c2c1C(=O)N(c1ccccc1)C2=O | > 200 | > 200 | –
Cc1cn([C@H]2C[C@@H]3[C@@H](COC(CCCC[Se]c4ccccc4)N3O)O2)c(=O)[nH]c1=O (stereo partly drawn) | 14.8 | 105 | –
Cn1c(=O)c2c(nc3sc4ccccc4c(=O)n32)n(C)c1=O | > 151 | > 151 | –
O=c1[nH]nc(CNc2ccc(Cl)cc2Cl)c2ccccc12 | 55 | 58.9 | –
COc1ccccc1N=Nc1c(-c2ccccc2)nn(C(=O)CC(=O)Nc2ccccc2Cl)c1-c1ccccc1 | > 13.2 | > 13.2 | –
NC(CSCCCS(=O)(=O)O)C(=O)O (stereo not drawn) | > 200 | > 200 | –
COc1ccc(CCc2nccn2C)cc1OC | > 200 | > 200 | –
COc1ccccc1NC(=O)C1=C(C)NC(C)=C(C(=O)Nc2ccccc2OC)C1c1ccccc1Cl | – | – | inactive
CNCC(OB(c1ccccc1)c1ccccc1)c1ccccc1 (stereo not drawn) | > 200 | 60.3 | –
CCn1ncc2c(=O)n3ncn(-c4ccc(Br)cc4)c3nc21 | – | – | inactive
Cc1cccc2c1Oc1ncccc1C2NC(=O)CN(C)C (stereo not drawn) | > 200 | > 200 | –
CCNC(=O)c1ccc(C)c(N=NN(C)C)c1 | > 288 | > 288 | –
O=Cc1c2ccccc2n2ccc3c4ccccc4[nH]c3c12 | > 200 | > 200 | –
COC(=O)CCC(=O)N1Cc2cc(C)ccc2N(C(=O)CCC(=O)OC)Cc2cc(C)ccc21 | – | – | inactive
NC(CO)C(=O)NCCS(=O)(=O)O (stereo not drawn) | > 100 | > 100 | –
COC(=O)/C=C1\C(CO)OC(n2ccc(=O)[nH]c2=O)C1O (stereo not drawn) | > 200 | > 200 | –
Nc1[nH]c(=S)c2c(N)n[nH]c2c1C(=O)Nc1ccc(Cl)cc1 | > 200 | 1.55 | –
C/C=C1/CN2CC[C@]34C=C(CO)C1CC23Nc1ccccc14 (stereo partly drawn) | > 123 | > 123 | –
O=C(O)c1cc(C(c2ccc(O)c(C(=O)O)c2)c2ccc(O)c(C(=O)O)c2)ccc1O | > 151 | 28.8 | –
CC1(C)CC(=O)C2=C(C1)Nc1ccc(Cl)cc1NC2c1ccccc1 (stereo not drawn) | > 200 | 75.9 | –
Cc1ccc(F)cc1NC(=O)O/N=C(\Cl)C(C)C | > 20 | 3.8 | –

— PubChem BioAssay AID179 (DTP/NCI, 2004)
